# Reference: PMC12179625, “Development of an LC-MS/MS method for quantification of colistin and colistin methanesulfonate in human plasma and its application to stability studies and therapeutic drug monitoring” (Journal of Mass Spectrometry and Advances in the Clinical …, 2025)
# Read-outs that look alike come from different tables or passages of the source. Where a SMILES comes first, the peptide text is derived from it. Bridges are numbered along the chain shown (N, C = ends). [ ]: non-standard residue; d: D form. The star is where a group is joined. Heptanoyl(6-Me) = CC(C)CCCCC(=O)*; X1 = CC[C@H](C)CCCCC(=O)*; Dab = NCC[C@H](N)C(=O)O
# Key:
# [1] = cited from earlier work
# Method: The concentration–time curves and PK parameters of colistin and CMS are shown in Fig. 6 and Table 5, respectively. A total of three patients treated with CMS for carbapenem-resistant Gram-negative bacterial infections were included in this study (Ethical approval number: TJ-IRB20220737). The measured trough concentrations of colistin (Cmin) ranged from 0.97 μg/mL to 2.84 μ g/mL, and the average Cmin was 1.61 ± 1.06 μ g/mL.
# [2] = Pharmacokinetics / TDM of CMS and colistin in patient plasma; type: in vivo, human; conditions: for AUC(0-t): 150 mg CBA
# Method: (§1) The SPE column was activated by using 1 mL of methanol followed by 2 mL of ultrapure water. Subsequently, 200 μL of either calibration standard samples, QC samples, or patient plasma samples were mixed with 100 μL of IS working solution and 700 μL of 1.43 % ammonia, This step is to ensure that the solution is in a non-acidic environment. This mixture was thoroughly vortexed to ensure homogeneity. The mixed samples were then loaded onto the Welch BRP SPE columns. After sequentially washing the column with a total of 4 mL of 1 % ammonia, the analytes were eluted twice with 200 μL of […] (30:70, v/v) containing 4 % formic acid. Ultimately, 400 μL total eluate was collected and analyzed by LC-MS/MS.
# The concentration of CMS was determined by calculating the difference between the concentration of total colistin after complete in vitro conversion and the concentration of free colistin in vivo. In vitro conversion of CMS was performed by sulfuric acid hydrolysis. Samples were processed as follows: 25 μL of 1 mol/L H2SO4 was added to a tube containing 200 μL of patient plasma sample and 100 μL of IS working solution, acidified at room temperature on a shaker for 1 h, and then 50 μL of 1 mol/L NaOH was added to neutralize the acid hydrolysis to maintain the pH of the final solution in the range of 7.0–7.5. After vortex mixing, 625 μL of 1.43 % ammonia solution was added and mixed thoroughly. After this conversion process, the concentration of total colistin was determined as free colistin described above.
# The study included three patients infected with carbapenem-resistant Gram-negative bacteria. The patients provided informed consent, and the research project was carried out following the regulations of the Ethics Committee (Ethical approval number: TJ-IRB20220737) of Tongji Medical College, Huazhong University of Science and Technology. The physician prescribed a weight-based dosing regimen with a 300 mg loading dose of colistin base activity (CBA) and a maintenance dose of 150 mg CBA. The sample collection for this session took place during the administration of the fourth dose. […] Blood samples were collected by EDTA tubes and placed on ice and transported to the lab within 2 h. The samples were centrifuged at a speed of 1000 g for 10 min at 4°C and the supernatant was stored at −20 °C for subsequent sample preparation.
# Pharmacokinetic parameters, including area under the concentration–time curve from 0 to the last measurable time point (AUC0-t) and from 0 to infinity (AUC0-∞), peak concentration (Cmax), time to reach peak concentration (Tmax), elimination half-life (t1/2), apparent volume of distribution (V), apparent total clearance (CL), and mean residence time (MRT0-∞) were calculated using DAS 2.0 (Shanghai University of TCM, China).
# [3] = Autosampler stability of processed colistin samples; type: physicochemical; conditions: autosampler 4 °C, accuracy, LC-MS/MS, mean ± SD, n = 3
# Method: as §1
# (§2) This study investigated the stability of colistin A and colistin B during the assay process, including the stability of plasma samples at room temperature for 24 h, the stability through three cycles of repeated freeze–thaw from −80 °C to room temperature, the stability during storage at −80 °C for three months, and the autosampler stability of processed samples at 4°C for 24 h. Three parallel samples were prepared for each condition. If the accuracy of the samples under storage conditions is within 85 % to 115 %, the stability is considered acceptable.
# [4] = Stability of colistin A and colistin B in plasma samples; type: in vitro ADME; conditions: spiked human plasma, accuracy vs theoretical concentration, LC-MS/MS, mean ± SD, n = 3; for −80 °C freeze–thaw 3 times: three freeze–thaw cycles −80 °C to room temperature
# Method: The calibration standard samples and QC samples were both obtained by diluting the corresponding working solution with blank plasma at a ratio of 1:19. The concentrations of the calibration standard samples were 0.10, 0.25, 0.50, 1.0, 2.5, 5.0, 8.0 and 10 μg/mL while the concentrations of the QC samples were 0.10 (LLOQ), 0.30 (LQC), 2.0 (MQC), 7.5 (HQC), and 30 (DQC) μg/mL.
# as §1, §2
# [5] = SPE eluate (acetonitrile 30:70 with 4 % formic acid) of HQC 7.5 μg/mL plasma
# [6] = SPE eluate (acetonitrile 30:70 with 4 % formic acid) of LQC 0.30 μg/mL plasma
# [7] = CMS infusion, 150 mg CBA maintenance, fourth dose, plasma, LC-MS/MS, patient 1
# [8] = CMS infusion, 150 mg CBA maintenance, fourth dose, plasma, LC-MS/MS, patient 2
# [9] = CMS infusion, 150 mg CBA maintenance, fourth dose, plasma, LC-MS/MS, patient 3
molecule,measurement,setting,value
colistin methanesulfonate [CMS],Tmax,"[1]; human, in vivo",1 h
same,half-life,"[1]; human, in vivo",2.0 ± 0.12 h
same,CL (apparent total clearance),"[2]; human, in vivo, iv, SD",6.87 ± 1.38 L/h
same,Tmax,"[2]; human, in vivo, iv, SD",1.33 ± 0.58 h
same,Vz (apparent volume of distribution),"[2]; human, in vivo, iv, SD",14.11 ± 2.39 L
same,t1/2 (elimination half-life),"[2]; human, in vivo, iv, SD",1.50 ± 0.57 h
"CC[C@H](C)CCCCC(=O)N[C@@H](CCN)C(=O)N[C@H](C(=O)N[C@@H](CCN)C(=O)N[C@H]1CCNC(=O)[C@H]([C@@H](C)O)NC(=O)[C@H](CCN)NC(=O)[C@H](CCN)NC(=O)[C@H](CC(C)C)NC(=O)[C@@H](CC(C)C)NC(=O)[C@H](CCN)NC1=O)[C@@H](C)O [Colistin A, colistin A] (X1-[Dab]T[Dab][Dab][Dab][dL]L[Dab][Dab]T; lactam 4-C)",Processed sample In the sampler at 4 °C for 24 h,[3]; [5],100.74 ± 4.06%
same,Processed sample In the sampler at 4 °C for 24 h,[3]; [6],102.44 ± 1.43%
same,Frozen at −80 °C for 3 months,[4]; HQC 7.5 μg/mL,101.24 ± 1.46%
same,Room temperature 24 h,[4]; HQC 7.5 μg/mL,91.48 ± 3.06%
same,−80 °C freeze–thaw 3 times,[4]; HQC 7.5 μg/mL,93.04 ± 1.97%
same,Frozen at −80 °C for 3 months,[4]; LQC 0.30 μg/mL,98.31 ± 5.04%
same,Room temperature 24 h,[4]; LQC 0.30 μg/mL,104.77 ± 4.59%
same,−80 °C freeze–thaw 3 times,[4]; LQC 0.30 μg/mL,106.19 ± 2.48%
"CC[C@H](C)CCCCC(=O)N[C@@H](CCN)C(=O)N[C@H](C(=O)N[C@@H](CCN)C(=O)N[C@H]1CCNC(=O)[C@H]([C@@H](C)O)NC(=O)[C@H](CCN)NC(=O)[C@H](CCN)NC(=O)[C@H](CC(C)C)NC(=O)[C@@H](CC(C)C)NC(=O)[C@H](CCN)NC1=O)[C@@H](C)O [Colistin, colistin] (X1-[Dab]T[Dab][Dab][Dab][dL]L[Dab][Dab]T; lactam 4-C)",Tmax,[1]; healthy subjects,2 h
same,half-life,"[1]; healthy volunteers, ref Couet W et al., 31",3.0 ± 0.6 h
same,AUC0-12h,[2]; [7],18730 ng·h/mL
same,AUC0-24h,[2]; [7],37480 ng·h/mL
same,AUC0-∞,[2]; [7],31440 ng·h/mL
same,CL (apparent total clearance),[2]; [7],4.77 L/h
same,Cmax,[2]; [7],2080 ng/mL
same,Cmin,[2]; [7],970 ng/mL
same,Css,[2]; [7],1560 ng/mL
same,MRT0-∞ (mean residence time),[2]; [7],13.34 h
same,Tmax,[2]; [7],2.00 h
same,Vz (apparent volume of distribution),[2]; [7],62.61 L
same,t1/2 (elimination half-life),[2]; [7],9.09 h
same,AUC0-12h,[2]; [8],43030 ng·h/mL
same,AUC0-24h,[2]; [8],85740 ng·h/mL
same,AUC0-∞,[2]; [8],105170 ng·h/mL
same,CL (apparent total clearance),[2]; [8],1.43 L/h
same,Cmax,[2]; [8],4520 ng/mL
same,Cmin,[2]; [8],2840 ng/mL
same,Css,[2]; [8],3570 ng/mL
same,MRT0-∞ (mean residence time),[2]; [8],22.04 h
same,Tmax,[2]; [8],2.00 h
same,Vz (apparent volume of distribution),[2]; [8],30.93 L
same,t1/2 (elimination half-life),[2]; [8],15.03 h
same,AUC0-12h,[2]; [9],18490 ng·h/mL
same,AUC0-24h,[2]; [9],37080 ng·h/mL
same,AUC0-∞,[2]; [9],25180 ng·h/mL
same,CL (apparent total clearance),[2]; [9],5.96 L/h
same,Cmax,[2]; [9],2450 ng/mL
same,Cmin,[2]; [9],1040 ng/mL
same,Css,[2]; [9],1550 ng/mL
same,MRT0-∞ (mean residence time),[2]; [9],10.86 h
same,Tmax,[2]; [9],3.00 h
same,Vz (apparent volume of distribution),[2]; [9],49.04 L
same,t1/2 (elimination half-life),[2]; [9],5.71 h
same,AUC0-24h,[2]; first of the three patients,37430 ng·h/mL
same,"Css,avg",[2]; first of the three patients,1560 ng/mL
same,AUC(0-t),"[2]; human, in vivo, iv, patients on CMS infusion (300 mg CBA loading, 150 mg CBA maintenance), fourth dose, plasma, SPE LC-MS/MS, DAS 2.0, mean ± SD of 3 patients, SD, read-out: AUC0-12h",26800 ± 14100 ng·h/mL
same,AUC(0-t),"[2]; human, in vivo, iv, patients on CMS infusion (300 mg CBA loading, 150 mg CBA maintenance), fourth dose, plasma, SPE LC-MS/MS, DAS 2.0, mean ± SD of 3 patients, SD, read-out: AUC0-24h",53400 ± 28000 ng·h/mL
same,AUC(0-inf),"[2]; human, in vivo, iv, patients on CMS infusion (300 mg CBA loading, 150 mg CBA maintenance), fourth dose, plasma, SPE LC-MS/MS, DAS 2.0, mean ± SD of 3 patients, SD",53900 ± 44500 ng·h/mL
same,clearance,"[2]; human, in vivo, iv, patients on CMS infusion (300 mg CBA loading, 150 mg CBA maintenance), fourth dose, plasma, SPE LC-MS/MS, DAS 2.0, mean ± SD of 3 patients, SD, read-out: CL (apparent total clearance) (converted)",67.5 mL/min
same,MRT,"[2]; human, in vivo, iv, patients on CMS infusion (300 mg CBA loading, 150 mg CBA maintenance), fourth dose, plasma, SPE LC-MS/MS, DAS 2.0, mean ± SD of 3 patients, SD, read-out: MRT0-∞ (mean residence time)",15.4 ± 5.87 h
same,Vd,"[2]; human, in vivo, iv, patients on CMS infusion (300 mg CBA loading, 150 mg CBA maintenance), fourth dose, plasma, SPE LC-MS/MS, DAS 2.0, mean ± SD of 3 patients, SD, read-out: Vz (apparent volume of distribution)",47.5 ± 15.9 L
same,half-life,"[2]; human, in vivo, iv, patients on CMS infusion (300 mg CBA loading, 150 mg CBA maintenance), fourth dose, plasma, SPE LC-MS/MS, DAS 2.0, mean ± SD of 3 patients, SD, read-out: t1/2 (elimination half-life) (converted)",9.94 ± 4.72 h
same,Cmax,"[2]; human, in vivo, iv, patients on CMS infusion (300 mg CBA loading, 150 mg CBA maintenance), fourth dose, plasma, SPE LC-MS/MS, mean ± SD of 3 patients, SD, read-out: Cmax",3010 ± 1320 ng/mL
same,Tmax,"[2]; human, in vivo, iv, patients on CMS infusion (300 mg CBA loading, 150 mg CBA maintenance), fourth dose, plasma, SPE LC-MS/MS, mean ± SD of 3 patients, SD, read-out: Tmax",2.33 ± 0.58 h
same,time at which peak concentration (Cmax) was reached,"[2]; in words, three patients, CMS infusion (1 h)",at 1-hour post-infusion
same,Css,"[2]; patients on CMS infusion (300 mg CBA loading, 150 mg CBA maintenance), fourth dose, plasma, SPE LC-MS/MS, DAS 2.0, mean ± SD of 3 patients, SD",2230 ± 1170 ng/mL
same,Cmin,"[2]; patients on CMS infusion (300 mg CBA loading, 150 mg CBA maintenance), fourth dose, plasma, SPE LC-MS/MS, mean ± SD of 3 patients, SD",1610 ± 1060 ng/mL
same,AUC0-24h,[2]; second of the three patients,86050 ng·h/mL
same,AUC0-24h,[2]; third of the three patients,36980 ng·h/mL
"CC(C)CCCCC(=O)N[C@@H](CCN)C(=O)N[C@H](C(=O)N[C@@H](CCN)C(=O)N[C@H]1CCNC(=O)[C@H]([C@@H](C)O)NC(=O)[C@H](CCN)NC(=O)[C@H](CCN)NC(=O)[C@H](CC(C)C)NC(=O)[C@@H](CC(C)C)NC(=O)[C@H](CCN)NC1=O)[C@@H](C)O [Colistin B, colistin B] ({Heptanoyl(6-Me)}-[Dab]T[Dab][Dab][Dab][dL]L[Dab][Dab]T; lactam 4-C)",Processed sample In the sampler at 4 °C for 24 h,[3]; [5],106.46 ± 6.48%
same,Processed sample In the sampler at 4 °C for 24 h,[3]; [6],108.54 ± 3.07%
same,Frozen at −80 °C for 3 months,[4]; HQC 7.5 μg/mL,98.76 ± 4.29%
same,Room temperature 24 h,[4]; HQC 7.5 μg/mL,99.39 ± 1.70%
same,−80 °C freeze–thaw 3 times,[4]; HQC 7.5 μg/mL,99.13 ± 6.46%
same,Frozen at −80 °C for 3 months,[4]; LQC 0.30 μg/mL,109.29 ± 3.71%
same,Room temperature 24 h,[4]; LQC 0.30 μg/mL,110.01 ± 3.95%
same,−80 °C freeze–thaw 3 times,[4]; LQC 0.30 μg/mL,110.17 ± 4.65%
